ChEMBL document CHEMBL3885861, “Open TG-GATES”

Species on record: Rattus norvegicus
Test: Open TG-GATES - Regimen: Single
Assay type: toxicity, organism-based, Sprague-Dawley
Parameters: regimen Single, gender Male, age 6 weeks
Conditions: in vivo, po, route gavage; for APTT / Bas / Eos / Fbg / Ht / Lym / MCH / MCHC / MCV / Mono / Neu / PT / Plat / RBC / Ret / WBC: tissue Blood; for KIDNEY_L / KIDNEY_R / KIDNEY_TOTAL: tissue Kidney; for LIVER: tissue Liver; for ALP / ALT / AST / BUN / CRE / Ca / Cl / DBIL / GLC / IP / K / LDH / Na / PL / RALB / TBIL / TC / TG / TP / gamma-GTP: tissue Plasma
[1] = 30 mg/kg, 3 h, dose level Middle
[2] = 30 mg/kg, 6 h, dose level Middle
[3] = 30 mg/kg, 9 h, dose level Middle
[4] = 30 mg/kg, 24 h, dose level Middle
[5] = 100 mg/kg, 3 h, dose level High
[6] = 100 mg/kg, 6 h, dose level High
[7] = 100 mg/kg, 9 h, dose level High
[8] = 100 mg/kg, 24 h, dose level High

Cc1cccc(Nc2cc(Cl)nc(SCC(=O)O)n2)c1C [PIRINIXIC ACID]
TERMINAL_BW [1]: 204.3 g
APTT [1]: 17.1 s
Bas [1]: 0%
Eos [1]: 0.4%
Fbg [1]: 275 mg/dL
Ht [1]: 39.7%
Lym [1]: 77.6%
MCH [1]: 21.5 pg
MCHC [1]: 34.3%
MCV [1]: 62.6 fL
Mono [1]: 3%
Neu [1]: 18%
PT [1]: 12.5 s
Plat [1]: 130.4 x10_4/uL
RBC [1]: 634 x10_4/ul
Ret [1]: 7.9%
WBC [1]: 74.5 x10_2/uL
KIDNEY_L [1]: 0.9 g
KIDNEY_R [1]: 0.9 g
KIDNEY_TOTAL [1]: 1.8 g
LIVER [1]: 8.9 g
ALP [1]: 1689.8 IU/L
ALT [1]: 49.2 IU/L
AST [1]: 74 IU/L
BUN [1]: 9 mg/dL
CRE [1]: 0.1 mg/dL
Ca [1]: 11 mg/dL
Cl [1]: 103.8 meq/L
DBIL [1]: 0.088 mg/dL
GLC [1]: 184.2 mg/dL
IP [1]: 10.1 mg/dL
K [1]: 3.9 meq/L
LDH [1]: 65.6 IU/L
Na [1]: 139.8 meq/L
PL [1]: 172.4 mg/dL
RALB [1]: 2.7 g/dL
TBIL [1]: 0.052 mg/dL
TC [1]: 79 mg/dL
TG [1]: 251.8 mg/dL
TP [1]: 5.8 g/dL
gamma-GTP [1]: 1 IU/L
TERMINAL_BW [2]: 205.1 g
APTT [2]: 16.2 s
Bas [2]: 0%
Eos [2]: 1%
Fbg [2]: 274.6 mg/dL
Ht [2]: 40.3%
Lym [2]: 70.8%
MCH [2]: 20.8 pg
MCHC [2]: 34.1%
MCV [2]: 61 fL
Mono [2]: 2.4%
Neu [2]: 25.4%
PT [2]: 12.4 s
Plat [2]: 117.5 x10_4/uL
RBC [2]: 661.2 x10_4/ul
Ret [2]: 7.5%
WBC [2]: 71.7 x10_2/uL
KIDNEY_L [2]: 0.9 g
KIDNEY_R [2]: 0.9 g
KIDNEY_TOTAL [2]: 1.7 g
LIVER [2]: 8.2 g
ALP [2]: 1624.2 IU/L
ALT [2]: 46.6 IU/L
AST [2]: 77.8 IU/L
BUN [2]: 8.8 mg/dL
CRE [2]: 0.2 mg/dL
Ca [2]: 10.7 mg/dL
Cl [2]: 105.4 meq/L
DBIL [2]: 0.036 mg/dL
GLC [2]: 177.8 mg/dL
IP [2]: 10.7 mg/dL
K [2]: 4.3 meq/L
LDH [2]: 59.8 IU/L
Na [2]: 139.6 meq/L
PL [2]: 149.4 mg/dL
RALB [2]: 2.6 g/dL
TBIL [2]: 0.046 mg/dL
TC [2]: 76.4 mg/dL
TG [2]: 115.4 mg/dL
TP [2]: 5.4 g/dL
gamma-GTP [2]: 1.4 IU/L
TERMINAL_BW [3]: 204.7 g
APTT [3]: 15.6 s
Bas [3]: 0%
Eos [3]: 0.6%
Fbg [3]: 267.4 mg/dL
Ht [3]: 38.8%
Lym [3]: 78.8%
MCH [3]: 21.1 pg
MCHC [3]: 34.3%
MCV [3]: 61.4 fL
Mono [3]: 2%
Neu [3]: 18%
PT [3]: 12.3 s
Plat [3]: 121.4 x10_4/uL
RBC [3]: 631.6 x10_4/ul
Ret [3]: 7.8%
WBC [3]: 66.7 x10_2/uL
KIDNEY_L [3]: 0.9 g
KIDNEY_R [3]: 0.8 g
KIDNEY_TOTAL [3]: 1.7 g
LIVER [3]: 7.9 g
ALP [3]: 1566.2 IU/L
ALT [3]: 35.8 IU/L
AST [3]: 65.8 IU/L
BUN [3]: 9.6 mg/dL
CRE [3]: 0.2 mg/dL
Ca [3]: 10.5 mg/dL
Cl [3]: 104.2 meq/L
DBIL [3]: 0.026 mg/dL
GLC [3]: 185.8 mg/dL
IP [3]: 11.1 mg/dL
K [3]: 3.9 meq/L
LDH [3]: 61.6 IU/L
Na [3]: 140.6 meq/L
PL [3]: 122.8 mg/dL
RALB [3]: 2.6 g/dL
TBIL [3]: 0.038 mg/dL
TC [3]: 67.8 mg/dL
TG [3]: 68.8 mg/dL
TP [3]: 5.3 g/dL
gamma-GTP [3]: 1.4 IU/L
TERMINAL_BW [4]: 211.1 g
APTT [4]: 16.1 s
Bas [4]: 0%
Eos [4]: 1.2%
Fbg [4]: 216.4 mg/dL
Ht [4]: 39.1%
Lym [4]: 76.2%
MCH [4]: 21.4 pg
MCHC [4]: 34.5%
MCV [4]: 61.9 fL
Mono [4]: 3%
Neu [4]: 19.6%
PT [4]: 13 s
Plat [4]: 110.1 x10_4/uL
RBC [4]: 632.4 x10_4/ul
Ret [4]: 6.8%
WBC [4]: 75.4 x10_2/uL
KIDNEY_L [4]: 0.9 g
KIDNEY_R [4]: 0.9 g
KIDNEY_TOTAL [4]: 1.8 g
LIVER [4]: 10.2 g
ALP [4]: 1775.4 IU/L
ALT [4]: 51.8 IU/L
AST [4]: 73.4 IU/L
BUN [4]: 14.4 mg/dL
CRE [4]: 0.2 mg/dL
Ca [4]: 10.7 mg/dL
Cl [4]: 104 meq/L
DBIL [4]: 0.018 mg/dL
GLC [4]: 189.6 mg/dL
IP [4]: 8.6 mg/dL
K [4]: 4 meq/L
LDH [4]: 58 IU/L
Na [4]: 141.6 meq/L
PL [4]: 111.4 mg/dL
RALB [4]: 2.6 g/dL
TBIL [4]: 0.03 mg/dL
TC [4]: 59.2 mg/dL
TG [4]: 37.6 mg/dL
TP [4]: 5.3 g/dL
gamma-GTP [4]: 1.2 IU/L
TERMINAL_BW [5]: 203.1 g
APTT [5]: 16 s
Bas [5]: 0%
Eos [5]: 0.8%
Fbg [5]: 246.6 mg/dL
Ht [5]: 38.5%
Lym [5]: 76.8%
MCH [5]: 21.8 pg
MCHC [5]: 34.4%
MCV [5]: 63.3 fL
Mono [5]: 3%
Neu [5]: 18.2%
PT [5]: 12.6 s
Plat [5]: 113.6 x10_4/uL
RBC [5]: 607.8 x10_4/ul
Ret [5]: 7.7%
WBC [5]: 82.7 x10_2/uL
KIDNEY_L [5]: 0.9 g
KIDNEY_R [5]: 0.8 g
KIDNEY_TOTAL [5]: 1.7 g
LIVER [5]: 8.8 g
ALP [5]: 1788.2 IU/L
ALT [5]: 54.6 IU/L
AST [5]: 82.6 IU/L
BUN [5]: 11 mg/dL
CRE [5]: 0.2 mg/dL
Ca [5]: 11 mg/dL
Cl [5]: 102.2 meq/L
DBIL [5]: 0.046 mg/dL
GLC [5]: 179.8 mg/dL
IP [5]: 10.4 mg/dL
K [5]: 4 meq/L
LDH [5]: 69.8 IU/L
Na [5]: 139.2 meq/L
PL [5]: 156.6 mg/dL
RALB [5]: 2.5 g/dL
TBIL [5]: 0.058 mg/dL
TC [5]: 80.8 mg/dL
TG [5]: 120.2 mg/dL
TP [5]: 5.4 g/dL
gamma-GTP [5]: 1 IU/L
TERMINAL_BW [6]: 202.6 g
APTT [6]: 16 s
Bas [6]: 0%
Eos [6]: 0.6%
Fbg [6]: 267.4 mg/dL
Ht [6]: 39.4%
Lym [6]: 74%
MCH [6]: 21.5 pg
MCHC [6]: 34.3%
MCV [6]: 62.6 fL
Mono [6]: 2.4%
Neu [6]: 22.2%
PT [6]: 12.1 s
Plat [6]: 116.2 x10_4/uL
RBC [6]: 628.6 x10_4/ul
Ret [6]: 7.5%
WBC [6]: 72.4 x10_2/uL
KIDNEY_L [6]: 0.9 g
KIDNEY_R [6]: 0.9 g
KIDNEY_TOTAL [6]: 1.7 g
LIVER [6]: 7.8 g
ALP [6]: 1738.4 IU/L
ALT [6]: 52 IU/L
AST [6]: 81.4 IU/L
BUN [6]: 9.4 mg/dL
CRE [6]: 0.2 mg/dL
Ca [6]: 10.6 mg/dL
Cl [6]: 104.6 meq/L
DBIL [6]: 0.036 mg/dL
GLC [6]: 178.6 mg/dL
IP [6]: 10.9 mg/dL
K [6]: 4.3 meq/L
LDH [6]: 54.6 IU/L
Na [6]: 139.4 meq/L
PL [6]: 152.4 mg/dL
RALB [6]: 2.5 g/dL
TBIL [6]: 0.052 mg/dL
TC [6]: 80.4 mg/dL
TG [6]: 105.4 mg/dL
TP [6]: 5.3 g/dL
gamma-GTP [6]: 1.6 IU/L
TERMINAL_BW [7]: 203.7 g
APTT [7]: 16.5 s
Bas [7]: 0%
Eos [7]: 0.4%
Fbg [7]: 248 mg/dL
Ht [7]: 40%
Lym [7]: 79.6%
MCH [7]: 21.8 pg
MCHC [7]: 34.3%
MCV [7]: 63.6 fL
Mono [7]: 1.8%
Neu [7]: 17.8%
PT [7]: 12.4 s
Plat [7]: 109.8 x10_4/uL
RBC [7]: 628.8 x10_4/ul
Ret [7]: 8.1%
WBC [7]: 76 x10_2/uL
KIDNEY_L [7]: 0.9 g
KIDNEY_R [7]: 0.9 g
KIDNEY_TOTAL [7]: 1.8 g
LIVER [7]: 7.8 g
ALP [7]: 2137.8 IU/L
ALT [7]: 46 IU/L
AST [7]: 74.2 IU/L
BUN [7]: 9.6 mg/dL
CRE [7]: 0.2 mg/dL
Ca [7]: 10.5 mg/dL
Cl [7]: 104.4 meq/L
DBIL [7]: 0.028 mg/dL
GLC [7]: 192 mg/dL
IP [7]: 11 mg/dL
K [7]: 4 meq/L
LDH [7]: 58.8 IU/L
Na [7]: 140.8 meq/L
PL [7]: 115.2 mg/dL
RALB [7]: 2.6 g/dL
TBIL [7]: 0.04 mg/dL
TC [7]: 59.4 mg/dL
TG [7]: 85.2 mg/dL
TP [7]: 5.4 g/dL
gamma-GTP [7]: 1.2 IU/L
TERMINAL_BW [8]: 210.5 g
APTT [8]: 16.2 s
Bas [8]: 0%
Eos [8]: 1%
Fbg [8]: 206.8 mg/dL
Ht [8]: 38.4%
Lym [8]: 76%
MCH [8]: 21.8 pg
MCHC [8]: 34.5%
MCV [8]: 63.3 fL
Mono [8]: 2.6%
Neu [8]: 20.2%
PT [8]: 13.1 s
Plat [8]: 109.5 x10_4/uL
RBC [8]: 607 x10_4/ul
Ret [8]: 7.2%
WBC [8]: 74.1 x10_2/uL
KIDNEY_L [8]: 0.9 g
KIDNEY_R [8]: 1 g
KIDNEY_TOTAL [8]: 1.9 g
LIVER [8]: 10.5 g
ALP [8]: 1720.8 IU/L
ALT [8]: 53.4 IU/L
AST [8]: 77.4 IU/L
BUN [8]: 14.2 mg/dL
CRE [8]: 0.2 mg/dL
Ca [8]: 10.7 mg/dL
Cl [8]: 104.2 meq/L
DBIL [8]: 0.018 mg/dL
GLC [8]: 195.4 mg/dL
IP [8]: 8.6 mg/dL
K [8]: 4 meq/L
LDH [8]: 60.4 IU/L
Na [8]: 142.2 meq/L
PL [8]: 96.4 mg/dL
RALB [8]: 2.6 g/dL
TBIL [8]: 0.026 mg/dL
TC [8]: 50.2 mg/dL
TG [8]: 31.4 mg/dL
TP [8]: 5.2 g/dL
gamma-GTP [8]: 1.2 IU/L
